One assay has as its target Histone deacetylase 2 (Homo sapiens, UniProt Q92769).
The target of the next assay is Histone deacetylase 4 (Homo sapiens, UniProt P56524). Put plainly: Inhibition of human HDAC4 by fluorimetric assay.
In the next assay the target is Histone deacetylase 9 (Homo sapiens, UniProt Q9UKV0). Description: Inhibition of human HDAC9 by fluorimetric assay.
For assay [1], the target named is T1, Polyamine deacetylase HDAC10 (Homo sapiens, UniProt Q969S8).
T1 sequence (Q969S8 whole entry): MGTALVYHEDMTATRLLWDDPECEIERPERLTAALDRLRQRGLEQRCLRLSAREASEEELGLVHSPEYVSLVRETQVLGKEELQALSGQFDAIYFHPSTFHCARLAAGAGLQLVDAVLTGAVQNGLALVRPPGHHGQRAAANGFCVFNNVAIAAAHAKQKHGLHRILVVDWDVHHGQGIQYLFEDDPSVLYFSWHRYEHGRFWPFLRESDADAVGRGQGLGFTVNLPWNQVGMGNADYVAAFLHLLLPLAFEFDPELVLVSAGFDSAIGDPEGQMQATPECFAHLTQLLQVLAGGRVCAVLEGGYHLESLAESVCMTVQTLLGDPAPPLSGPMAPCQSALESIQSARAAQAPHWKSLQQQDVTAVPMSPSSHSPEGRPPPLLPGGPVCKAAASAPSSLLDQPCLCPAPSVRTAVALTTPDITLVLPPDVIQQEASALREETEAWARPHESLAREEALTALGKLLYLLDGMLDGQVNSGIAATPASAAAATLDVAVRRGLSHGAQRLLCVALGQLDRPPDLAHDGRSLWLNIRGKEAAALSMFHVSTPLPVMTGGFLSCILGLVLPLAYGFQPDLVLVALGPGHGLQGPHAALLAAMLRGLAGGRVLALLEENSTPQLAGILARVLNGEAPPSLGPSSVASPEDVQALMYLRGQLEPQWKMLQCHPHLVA
Put plainly: Inhibition of human HDAC10 by fluorimetric assay.

In another assay the test system is NCI-H460. Put plainly: cells. Conditions: Homo sapiens, NCI-H460, 48 h. It is filed as functional, cell-based.
Assay [2] concerns the target T2, Protein deacetylase HDAC6 (Homo sapiens, UniProt Q9UBN7).
T2 sequence (Q9UBN7 whole entry): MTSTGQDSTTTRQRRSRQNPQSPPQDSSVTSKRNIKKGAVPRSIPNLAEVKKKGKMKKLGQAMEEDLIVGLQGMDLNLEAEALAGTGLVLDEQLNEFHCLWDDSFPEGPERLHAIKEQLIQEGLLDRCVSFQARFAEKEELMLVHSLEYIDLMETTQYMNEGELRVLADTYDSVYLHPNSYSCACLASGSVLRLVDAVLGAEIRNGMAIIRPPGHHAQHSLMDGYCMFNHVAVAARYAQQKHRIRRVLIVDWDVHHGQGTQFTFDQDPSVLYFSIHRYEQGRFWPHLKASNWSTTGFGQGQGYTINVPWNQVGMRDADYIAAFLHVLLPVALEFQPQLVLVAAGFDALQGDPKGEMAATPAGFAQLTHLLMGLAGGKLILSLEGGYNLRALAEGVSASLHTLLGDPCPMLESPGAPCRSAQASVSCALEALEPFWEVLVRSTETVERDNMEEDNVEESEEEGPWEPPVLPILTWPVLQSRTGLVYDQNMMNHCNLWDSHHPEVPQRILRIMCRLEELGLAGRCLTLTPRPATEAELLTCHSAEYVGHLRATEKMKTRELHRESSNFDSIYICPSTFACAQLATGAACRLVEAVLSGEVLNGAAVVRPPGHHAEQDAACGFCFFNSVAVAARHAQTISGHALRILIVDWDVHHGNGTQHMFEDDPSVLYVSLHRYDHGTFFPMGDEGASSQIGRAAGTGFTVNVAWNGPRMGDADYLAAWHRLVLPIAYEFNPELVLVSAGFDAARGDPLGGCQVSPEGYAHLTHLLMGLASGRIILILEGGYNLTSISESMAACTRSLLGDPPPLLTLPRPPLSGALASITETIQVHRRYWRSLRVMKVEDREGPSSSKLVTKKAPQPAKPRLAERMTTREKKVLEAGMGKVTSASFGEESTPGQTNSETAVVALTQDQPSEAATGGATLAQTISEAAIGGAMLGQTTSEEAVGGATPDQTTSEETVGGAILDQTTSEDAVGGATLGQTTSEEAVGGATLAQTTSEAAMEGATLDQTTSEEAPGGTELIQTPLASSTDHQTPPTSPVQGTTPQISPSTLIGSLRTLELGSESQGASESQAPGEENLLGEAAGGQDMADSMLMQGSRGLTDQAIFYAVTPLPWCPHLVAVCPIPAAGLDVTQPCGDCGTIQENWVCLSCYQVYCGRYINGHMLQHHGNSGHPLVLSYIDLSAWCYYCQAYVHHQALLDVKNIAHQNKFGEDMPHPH
Description: Inhibition of human HDAC6 by fluorimetric assay.

The next assay deals with T3, Histone deacetylase 11 (Homo sapiens, UniProt Q96DB2).
T3 sequence (Q96DB2 whole entry): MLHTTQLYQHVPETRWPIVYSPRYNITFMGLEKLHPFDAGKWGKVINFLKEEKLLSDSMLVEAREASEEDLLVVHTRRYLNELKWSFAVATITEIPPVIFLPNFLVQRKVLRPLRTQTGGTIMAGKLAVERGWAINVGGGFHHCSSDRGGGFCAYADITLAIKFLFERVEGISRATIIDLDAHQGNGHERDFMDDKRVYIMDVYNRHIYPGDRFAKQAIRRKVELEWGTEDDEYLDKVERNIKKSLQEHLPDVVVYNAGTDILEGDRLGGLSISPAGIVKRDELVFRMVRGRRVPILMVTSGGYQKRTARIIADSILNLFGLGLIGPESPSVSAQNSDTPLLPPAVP
Description: Inhibition of human HDAC11 by fluorimetric assay.

In another assay the test system is HCT-116. Put plainly: cells. The assay is classed as functional, cell-based. Conditions: Homo sapiens, HCT-116, 48 h.
The next assay addresses Histone deacetylase 5 (Homo sapiens, UniProt Q9UQL6). Put plainly: Inhibition of human HDAC5 by fluorimetric assay.
The next assay concerns the target Histone deacetylase 1 (Homo sapiens, UniProt Q13547). Description: Inhibition of human HDAC1 by fluorimetric assay.
The next assay addresses T4, Histone deacetylase 8 (Homo sapiens, UniProt Q9BY41).
T4 sequence (Q9BY41 whole entry): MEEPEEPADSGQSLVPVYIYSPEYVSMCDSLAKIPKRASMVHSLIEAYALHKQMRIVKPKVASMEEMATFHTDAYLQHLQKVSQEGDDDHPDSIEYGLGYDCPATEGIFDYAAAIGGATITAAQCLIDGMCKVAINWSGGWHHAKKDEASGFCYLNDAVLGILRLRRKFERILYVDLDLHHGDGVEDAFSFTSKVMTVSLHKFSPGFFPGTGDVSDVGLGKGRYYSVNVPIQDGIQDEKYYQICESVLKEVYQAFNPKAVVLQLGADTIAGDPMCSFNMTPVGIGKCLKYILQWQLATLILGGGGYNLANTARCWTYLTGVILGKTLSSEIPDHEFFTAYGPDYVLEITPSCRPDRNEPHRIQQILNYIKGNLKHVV
Put plainly: Inhibition of human HDAC8 by fluorimetric assay.

For a further assay, the target named is Histone deacetylase 3 (Homo sapiens, UniProt O15379).
Chain of Histone deacetylase 3 (O15379 whole entry): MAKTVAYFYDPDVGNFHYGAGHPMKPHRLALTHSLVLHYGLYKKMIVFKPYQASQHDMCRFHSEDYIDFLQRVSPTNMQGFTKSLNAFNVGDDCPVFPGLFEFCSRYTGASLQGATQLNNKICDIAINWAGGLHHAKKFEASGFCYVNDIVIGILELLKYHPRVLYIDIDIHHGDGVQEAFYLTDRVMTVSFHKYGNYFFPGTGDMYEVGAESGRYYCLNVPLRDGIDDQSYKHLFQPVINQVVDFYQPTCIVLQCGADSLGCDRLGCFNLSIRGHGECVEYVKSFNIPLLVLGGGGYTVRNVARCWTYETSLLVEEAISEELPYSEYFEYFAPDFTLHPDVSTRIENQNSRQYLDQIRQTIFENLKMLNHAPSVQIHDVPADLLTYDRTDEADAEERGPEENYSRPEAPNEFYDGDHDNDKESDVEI

Chain of Histone deacetylase 4 (P56524 whole entry): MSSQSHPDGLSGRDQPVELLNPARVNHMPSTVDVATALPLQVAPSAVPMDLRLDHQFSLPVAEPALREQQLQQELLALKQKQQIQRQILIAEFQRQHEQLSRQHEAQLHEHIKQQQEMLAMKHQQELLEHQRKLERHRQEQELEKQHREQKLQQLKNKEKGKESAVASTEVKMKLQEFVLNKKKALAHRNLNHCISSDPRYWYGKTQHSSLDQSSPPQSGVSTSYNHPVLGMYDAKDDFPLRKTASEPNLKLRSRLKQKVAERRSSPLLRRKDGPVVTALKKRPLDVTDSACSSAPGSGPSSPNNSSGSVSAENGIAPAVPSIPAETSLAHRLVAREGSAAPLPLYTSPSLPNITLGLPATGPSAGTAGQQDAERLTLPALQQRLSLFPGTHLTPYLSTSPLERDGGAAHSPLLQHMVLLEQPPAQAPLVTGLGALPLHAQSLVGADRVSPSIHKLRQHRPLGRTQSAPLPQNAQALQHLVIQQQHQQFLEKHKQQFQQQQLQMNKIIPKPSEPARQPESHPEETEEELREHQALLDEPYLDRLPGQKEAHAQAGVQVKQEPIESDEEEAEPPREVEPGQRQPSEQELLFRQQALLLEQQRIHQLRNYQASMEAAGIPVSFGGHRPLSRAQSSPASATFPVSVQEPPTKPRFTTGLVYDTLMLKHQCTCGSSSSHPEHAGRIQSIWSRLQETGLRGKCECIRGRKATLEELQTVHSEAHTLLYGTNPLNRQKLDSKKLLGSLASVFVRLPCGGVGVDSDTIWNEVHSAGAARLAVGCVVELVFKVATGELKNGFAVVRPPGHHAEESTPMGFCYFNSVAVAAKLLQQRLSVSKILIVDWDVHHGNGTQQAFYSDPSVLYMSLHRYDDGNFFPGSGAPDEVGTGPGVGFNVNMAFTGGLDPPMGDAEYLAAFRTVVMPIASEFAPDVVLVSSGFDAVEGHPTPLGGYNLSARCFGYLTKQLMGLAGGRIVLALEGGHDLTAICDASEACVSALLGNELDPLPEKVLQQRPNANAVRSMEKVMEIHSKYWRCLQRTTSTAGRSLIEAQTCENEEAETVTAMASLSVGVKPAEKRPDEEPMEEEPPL
Chain of Histone deacetylase 5 (Q9UQL6 whole entry): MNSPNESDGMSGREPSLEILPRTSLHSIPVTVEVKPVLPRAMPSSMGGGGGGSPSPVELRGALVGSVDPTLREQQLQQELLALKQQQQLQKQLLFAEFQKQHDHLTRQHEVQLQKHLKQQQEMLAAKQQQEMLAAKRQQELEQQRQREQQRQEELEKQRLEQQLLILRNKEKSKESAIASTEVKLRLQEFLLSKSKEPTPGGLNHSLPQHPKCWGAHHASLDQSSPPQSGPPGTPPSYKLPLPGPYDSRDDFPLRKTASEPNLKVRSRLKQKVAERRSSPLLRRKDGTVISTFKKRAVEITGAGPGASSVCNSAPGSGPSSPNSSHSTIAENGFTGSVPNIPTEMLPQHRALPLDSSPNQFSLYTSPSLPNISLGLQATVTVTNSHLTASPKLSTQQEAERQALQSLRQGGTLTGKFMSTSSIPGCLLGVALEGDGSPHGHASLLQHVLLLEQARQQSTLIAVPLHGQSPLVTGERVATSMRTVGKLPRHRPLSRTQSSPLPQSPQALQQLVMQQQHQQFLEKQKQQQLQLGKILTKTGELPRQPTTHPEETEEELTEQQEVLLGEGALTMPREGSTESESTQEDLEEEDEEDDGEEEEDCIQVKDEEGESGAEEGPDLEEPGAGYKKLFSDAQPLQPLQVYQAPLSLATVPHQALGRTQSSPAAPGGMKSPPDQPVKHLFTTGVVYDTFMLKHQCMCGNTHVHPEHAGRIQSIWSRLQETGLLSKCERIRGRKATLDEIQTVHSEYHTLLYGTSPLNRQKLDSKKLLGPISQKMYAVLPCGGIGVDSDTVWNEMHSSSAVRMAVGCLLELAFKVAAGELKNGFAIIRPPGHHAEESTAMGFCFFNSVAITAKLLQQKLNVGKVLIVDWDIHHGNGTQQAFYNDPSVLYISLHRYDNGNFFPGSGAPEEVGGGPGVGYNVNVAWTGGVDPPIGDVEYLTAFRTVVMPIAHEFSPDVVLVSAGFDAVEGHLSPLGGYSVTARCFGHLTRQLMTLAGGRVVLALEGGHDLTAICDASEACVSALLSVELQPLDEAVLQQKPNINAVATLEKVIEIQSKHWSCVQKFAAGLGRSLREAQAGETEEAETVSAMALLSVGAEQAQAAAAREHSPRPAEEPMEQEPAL
Chain of Histone deacetylase 9 (Q9UKV0 whole entry): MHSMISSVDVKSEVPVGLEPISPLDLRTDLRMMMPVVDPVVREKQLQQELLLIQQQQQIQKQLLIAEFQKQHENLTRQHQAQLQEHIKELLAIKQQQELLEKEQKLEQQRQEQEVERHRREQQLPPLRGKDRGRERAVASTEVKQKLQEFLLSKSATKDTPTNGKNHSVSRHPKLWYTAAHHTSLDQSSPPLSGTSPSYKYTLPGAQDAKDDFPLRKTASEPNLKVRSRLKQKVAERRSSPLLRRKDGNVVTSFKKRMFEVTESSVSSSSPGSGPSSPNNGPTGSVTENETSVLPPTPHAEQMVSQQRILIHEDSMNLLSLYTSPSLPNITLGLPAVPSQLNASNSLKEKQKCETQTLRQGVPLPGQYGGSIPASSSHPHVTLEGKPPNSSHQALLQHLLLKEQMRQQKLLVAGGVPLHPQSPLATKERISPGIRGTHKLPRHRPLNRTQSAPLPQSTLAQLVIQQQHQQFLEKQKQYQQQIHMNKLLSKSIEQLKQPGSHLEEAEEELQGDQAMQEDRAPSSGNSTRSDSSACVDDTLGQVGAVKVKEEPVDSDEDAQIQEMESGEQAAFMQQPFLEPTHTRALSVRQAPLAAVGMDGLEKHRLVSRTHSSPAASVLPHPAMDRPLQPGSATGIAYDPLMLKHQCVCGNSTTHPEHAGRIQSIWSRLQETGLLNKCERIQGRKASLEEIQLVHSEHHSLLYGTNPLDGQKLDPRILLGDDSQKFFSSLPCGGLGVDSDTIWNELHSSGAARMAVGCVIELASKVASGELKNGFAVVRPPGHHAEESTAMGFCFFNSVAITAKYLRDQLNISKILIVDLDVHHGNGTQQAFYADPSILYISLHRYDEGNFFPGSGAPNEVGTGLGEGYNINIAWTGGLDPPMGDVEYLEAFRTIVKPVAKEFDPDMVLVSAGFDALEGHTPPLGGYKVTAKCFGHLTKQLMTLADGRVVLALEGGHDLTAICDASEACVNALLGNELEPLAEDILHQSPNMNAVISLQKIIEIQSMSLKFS
Chain of Histone deacetylase 2 (Q92769 whole entry): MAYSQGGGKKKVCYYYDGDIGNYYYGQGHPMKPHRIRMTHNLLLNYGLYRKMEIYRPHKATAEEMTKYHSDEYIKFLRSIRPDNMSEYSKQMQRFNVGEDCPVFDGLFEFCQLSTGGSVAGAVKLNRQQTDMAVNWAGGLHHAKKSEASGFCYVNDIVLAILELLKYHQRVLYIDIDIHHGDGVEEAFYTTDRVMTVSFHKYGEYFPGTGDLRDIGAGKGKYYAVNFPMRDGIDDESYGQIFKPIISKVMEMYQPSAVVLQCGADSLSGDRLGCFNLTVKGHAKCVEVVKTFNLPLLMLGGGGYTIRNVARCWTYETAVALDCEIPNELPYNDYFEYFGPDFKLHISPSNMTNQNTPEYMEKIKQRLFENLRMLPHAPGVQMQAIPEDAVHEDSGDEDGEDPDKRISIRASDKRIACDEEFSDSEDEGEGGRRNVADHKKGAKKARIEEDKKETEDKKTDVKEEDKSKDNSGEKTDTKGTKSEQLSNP
Chain of Histone deacetylase 1 (Q13547 whole entry): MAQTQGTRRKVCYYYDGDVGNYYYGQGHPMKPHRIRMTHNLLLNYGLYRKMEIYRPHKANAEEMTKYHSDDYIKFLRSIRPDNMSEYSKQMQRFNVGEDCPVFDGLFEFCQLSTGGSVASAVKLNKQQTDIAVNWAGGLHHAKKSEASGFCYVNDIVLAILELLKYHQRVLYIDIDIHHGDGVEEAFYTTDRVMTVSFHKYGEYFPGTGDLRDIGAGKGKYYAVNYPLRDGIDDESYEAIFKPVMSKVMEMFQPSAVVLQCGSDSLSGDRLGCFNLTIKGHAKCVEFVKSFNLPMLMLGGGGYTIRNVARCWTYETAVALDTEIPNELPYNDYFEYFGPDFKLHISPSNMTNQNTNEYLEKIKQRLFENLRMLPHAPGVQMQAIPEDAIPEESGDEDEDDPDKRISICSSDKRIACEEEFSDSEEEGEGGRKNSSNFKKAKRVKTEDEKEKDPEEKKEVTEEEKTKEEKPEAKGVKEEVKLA

As to `COc1cc2cc(c1)COc1ccccc1NC(=O)[C@H](CCCCCC(=O)NO)OCCC2`, the IC50 – broadly, the concentration at which inhibition is half-maximal – against Histone deacetylase 2 stood at 268 nM; on Histone deacetylase 4, 118 nM; against Histone deacetylase 9, 123 nM; in assay [1], 190 nM; with NCI-H460, 740 nM; in assay [2] it was 3.43 nM. Further, the half-inhibitory concentration (IC50) was determined as 103 nM at Histone deacetylase 11; 520 nM in the assay with HCT-116; 109 nM on Histone deacetylase 5; 72.2 nM at Histone deacetylase 1; 136 nM against Histone deacetylase 8; 93.6 nM against Histone deacetylase 3.

Consider `COc1cc2cc(c1)COc1ccccc1NC(=O)[C@@H](CCCCCC(=O)NO)OCCC2`, for which the concentration for half-maximal inhibition (IC50) against Histone deacetylase 2 worked out at 425 nM; against Histone deacetylase 4, 454 nM; at Histone deacetylase 9, 322 nM; in assay [1] it was 200 nM; with NCI-H460 it was 680 nM; in assay [2], 3.92 nM. Moreover, the 50% inhibitory concentration (IC50) against Histone deacetylase 11 turned out to be 174 nM; in the assay on HCT-116, 850 nM; against Histone deacetylase 5 it was 150 nM; against Histone deacetylase 1, 102 nM; against Histone deacetylase 8 it was 90.7 nM; against Histone deacetylase 3, 94.5 nM.

Consider `O=C(CCCCCC1OCCCCCCOc2ccccc2NC1=O)NO` (racemic), for which the IC50 against Histone deacetylase 2 was 1570 nM; against Histone deacetylase 4 it was 1200 nM; against Histone deacetylase 9, 687 nM; in assay [1], 683 nM; in the assay with NCI-H460, 1000 nM; in assay [2], 10.1 nM. Further, the half-inhibitory concentration (IC50) worked out at 564 nM at Histone deacetylase 11; 580 nM in the assay with HCT-116; 878 nM on Histone deacetylase 5; 560 nM at Histone deacetylase 1; 1100 nM on Histone deacetylase 8; 176 nM on Histone deacetylase 3.

In the case of `O=C(CCCCCC1OCCCCCCCOc2ccccc2NC1=O)NO` (racemic), the IC50 on Histone deacetylase 2 stood at 1540 nM; at Histone deacetylase 4 it was 1250 nM; on Histone deacetylase 9, 1040 nM; in assay [1] it was 958 nM; with NCI-H460, 620 nM; in [2], 9.38 nM. Besides, the IC50 on Histone deacetylase 11 was determined as 546 nM; in the assay with HCT-116 it was 350 nM; at Histone deacetylase 5, 695 nM; on Histone deacetylase 1 it was 439 nM; against Histone deacetylase 8, 286 nM; against Histone deacetylase 3 it was 240 nM.

Regarding `COc1cc2cc(c1)COc1ccccc1NC(=O)C(CCCCCC(=O)NO)OCCC2` (racemic), the IC50 stood at 793 nM on Histone deacetylase 2; 447 nM against Histone deacetylase 4; 336 nM against Histone deacetylase 9; 320 nM in assay [1]; 870 nM with NCI-H460; 8.44 nM in assay [2]. Besides, the IC50 against Histone deacetylase 11 worked out at 226 nM; in the assay with HCT-116, 690 nM; against Histone deacetylase 5, 341 nM; at Histone deacetylase 1 it was 204 nM; at Histone deacetylase 8, 444 nM; on Histone deacetylase 3, 246 nM.

Turning to `COc1ccc(COC(CCCCCC(=O)NO)C(=O)Nc2ccccc2)cc1` (racemic), the half-inhibitory concentration (IC50) against Histone deacetylase 2 is 254 nM; against Histone deacetylase 4, 648 nM; against Histone deacetylase 9, 247 nM; in [1] it was 179 nM; in assay [2] it was 20.1 nM; at Histone deacetylase 11 it was 197 nM. Further, the IC50 worked out at 134 nM against Histone deacetylase 5, 53.4 nM against Histone deacetylase 1, 331 nM on Histone deacetylase 8 and 131 nM against Histone deacetylase 3.

Take `O=C(/C=C/c1ccc(CN(CCO)CCc2c[nH]c3ccccc23)cc1)NO` [DACINOSTAT]: the figures for the half-inhibitory concentration (IC50) in the assay with NCI-H460 and with HCT-116 were 70 nM and 18 nM, respectively.

In the case of `CC(/C=C/C(=O)NO)=C\[C@@H](C)C(=O)c1ccc(N(C)C)cc1` [TRICHOSTATIN], the IC50 was 100 nM with NCI-H460 and 43 nM with HCT-116.
